Data published in patent US20140228407A1, “TETRA-PYRIDINE COMPOUNDS AND COMPOSITION FOR PROTECTING CELLS, TISSUES AND ORGANS AGAINST ISCHEMIA-REPERFUSION INJURY” (YISSUM RESEARCH DEVELOPMENT COMPANY OF THE HEBREW …, priority 2011, published 2014).

What was measured:
[1] = test system: neonate rat cardiomyocyte cells; experiment: Hypoxia in neonatal rat cardiomyocyte cultures, propidium iodide (PI) staining; assay type: cell-based; settings: after 3.5 hours of reoxygenation
Procedure: Rat hearts (1-2 days old) were sterilely removed and bathed three times in Ca^2+- and Mg^2+-free PBS to remove excess blood cells. The hearts were minced to small fragments and then agitated in a proteolytic enzyme-RDB solution prepared from a fig tree extract as described previously (Brik et al., 1990; Shneyvays et al., 2001). The RDB was diluted 1:200 in PBS at 25° C. for a few cycles of 10 min each. The supernatant suspension containing dissociated cells, to which medium containing 10% horse serum was added, was centrifuged at 500 g for 5 min. After centrifugation, the supernatant phase was discarded, and cells were resuspended in Dulbecco's modified Eagle medium supplemented with 10% heat-inactivated horse serum and 0.5% chick embryo extract. […]
Cultured cardiomyocytes were incubated with propidium iodide (5 μg/ml) (Molecular Probes, Eugene, Oreg.) in PBS for 30 min at 37° C., and propidium iodide (PI) staining was performed by incubating the cells with PI (5 μg/ml) (Molecular Probes, Eugene, Oreg.) in PBS for 30 min at 37° C. in order to differentiate between dead and survived cells following hypoxia (PI-fluorescent stain only nucleus of damaged cardiomyocytes). Thereafter, cells were bathed with PBS twice, and the cell fluorescence was measured through excitation at 485 nm and emission at 635 nm. […]

[2] = test system: model of ischemia/reperfusion in the CD rat; experiment: Mortality and adverse changes in Phase B of rat ischemia/reperfusion study; assay type: in vivo
Procedure: This study was conducted to evaluate the effects of the Compound #6 on cardiac function, infarct size, and Troponin I levels in a model of ischemia/reperfusion in the CD® (CR1CD® (SD)) rat. Phase A was conducted for toxicity evaluation purposes. In Phase B (the efficacy phase), two treatment groups of eight male rats were administered Compound #6 at dose levels of 0.2 and 2 mg/kg via intravenous infusion following myocardial infarction. The 2 mg/kg dose of Compound #6 was administered intravenously via a slow infusion starting 3 to 14 minutes prior to reperfusion and continuing for 20 minutes to 20 minutes and 32 seconds, which was approximately 6 to 17 minutes after reperfusion (depending on the infusion start time). The 0.2 mg/kg dose of Compound #6 was administered intravenously via a slow infusion starting 10 minutes prior to reperfusion and continuing for 30 minutes to 30 minutes and 30 seconds, which was approximately 20 minutes after reperfusion.
The animals were placed on mechanical ventilation and not intubated. Once anesthetized, the animal was placed in a right lateral recumbency, an arterial catheter or polyethylene tube was placed in the carotid artery for monitoring blood pressure and a thoracotomy was performed. The left coronary artery (LCA) was identified. […] In Phase A, the animals were recovered from anesthesia and evaluated for 4 days. […]

Cc1ccc(CN(CCN(Cc2ccc(C)cn2)Cc2ccc(C)cn2)Cc2ccc(C)cn2)nc1 [Compound #6]
protection by PI staining, 100 nM versus other concentrations of the same compound ([1]; 100 nM): improve protection vs. other #6 concentrations
protection from hypoxic injury by PI nuclei staining compared with 1 μM TPEN, FIG. 1B ([1]; all concentrations 1 μM, 300 nM, 100 nM and 30 nM): better protection than 1 μM of TPEN
differences in mortality rates between saline animals and treated animals (Phase B) ([2]; 0.2 and 2 mg/kg vs saline): suggest a cardioprotective effect
animals that died between 3 and 4 hours post reperfusion (Phase B) ([2]; Group 5, 0.2 mg/kg): two
